One series addresses IRAK4 (Homo sapiens (Human), UniProt Q9NWZ3). Kind of series: Screening the compounds against IRAK4 with ATP (Caliper, FAM-labeled peptide). Format: biochemical. The conditions noted are these: for activity, times better than that of the positive control compound CA4948: IRAK4 kinase inhibition relative to CA4948; for IC50: read-out: IC50 (nM) (10 μM ATP). As to the method: Prepare Ix kinase base buffer and stop buffer for testing kinases: (1) base buffer: 50 mM HEPES (pH 7.5), 0.0015% Brij-35; (2) stop buffer: 100 mM HEPES (pH 7.5), 0.015% Brij-35, 0.2% Coating Reagent #3, 50 mM EDTA. Then prepare compounds for testing: Dilute the compound to 50× of the final desired highest inhibitor concentration in reaction by 100% DMSO. Transfer 100 μL of this compound dilution to a well in a 96-well plate (source plate).
Serially dilute the compounds by 3-fold for a total of 10 points. Transfer 10 μL of the compound from the source plate to a new 96-well plate (intermediate plate) and add 90 μL of Ix kinase buffer. Shake the mixture on the intermediate plate for 10 min. Transfer 5 μL of each well from the 96-well intermediate plate to a 384-well plate in duplicates. Add 10 μL of 2.5× enzyme solution to each well of the 384-well assay plate and incubate at room temperature for 10 min. Add 10 μL, of 2.5×FAM-labeled peptide and ATP solution and incubate at 28° C. for a period of time. Finally stop the reaction by adding 30 μL of stop buffer and collect data on Caliper to obtain the IC50.

Series [1] can be described thus: Metabolic stability in human liver microsomes. Format: in vitro ADME. As to the method:
(§1) The appropriate concentrations of microsomes working solutions (0.56 mg/mL) were prepared in potassium phosphate buffer. The test compounds were incubated with Human, SD Rat, CD-1 Mouse and Beagle Dog liver microsomes for 10 min at 37° C. with constant shaking. The reaction was initiated by the addition of nicotinamide adenine dinucleotide phosphate (NADPH) cofactor after a 10 min pre-incubation. At 5, 15, 30, 45, and 60 min, the samples were taken and placed into the stop solution (Cold acetonitrile containing 200 ng/mL tolbutamide and 200 ng/mL labetalol as internal standards). All sampling plates were shaken for 10 min, then centrifuged at 4000 rpm for 20 minutes at 4° C. Each supernatant of bioanalysis plate was sealed and shaken for 10 minutes prior to LC-MS analysis.
Background: Liver microsomes are vesicles of endoplasmic reticulum, rich in cytochrome P450 enzymes.

A short description of series [2]: Metabolic stability in rat liver microsomes. Format: in vitro ADME, SD Rat. As to the method: as §1
Series [3] can be described thus: Metabolic stability in mouse liver microsomes. The format is in vitro ADME, CD-1 Mouse. As to the method: as §1
Series [4] in a line: Metabolic stability in dog liver microsomes. The format is in vitro ADME, Beagle Dog. As to the method: as §1

Read-outs that look alike come from different tables or passages of the source.

IRAK4, sequence (Q9NWZ3 whole entry): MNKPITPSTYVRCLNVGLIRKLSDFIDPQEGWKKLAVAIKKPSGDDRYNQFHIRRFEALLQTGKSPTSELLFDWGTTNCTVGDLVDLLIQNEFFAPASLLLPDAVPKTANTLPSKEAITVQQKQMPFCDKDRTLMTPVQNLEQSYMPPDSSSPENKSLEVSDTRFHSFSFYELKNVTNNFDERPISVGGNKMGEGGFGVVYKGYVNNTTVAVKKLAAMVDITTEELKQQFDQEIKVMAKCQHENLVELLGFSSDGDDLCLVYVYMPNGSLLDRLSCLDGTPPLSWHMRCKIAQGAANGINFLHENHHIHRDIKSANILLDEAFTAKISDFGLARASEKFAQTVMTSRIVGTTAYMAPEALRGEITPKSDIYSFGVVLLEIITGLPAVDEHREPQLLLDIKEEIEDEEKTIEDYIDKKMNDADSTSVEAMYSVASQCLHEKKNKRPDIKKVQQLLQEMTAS

For orientation: IC50 means the concentration at which inhibition is half-maximal. On to `COC1CCN(c2nc3nc(N4CCOCC4)oc3cc2C(=O)Nc2cccc(-c3cnn(C)c3)n2)CC1` [Compound A24, 5-(4-Methoxypiperidin-1-yl)-N-(6-(1-methyl-1H-pyrazol-4-yl)pyridin-2-yl)-2-morpholinooxazolo[4,5-b]pyridine-6-carboxamide], for which the “activity, times better than that of the positive control compound CA4948” value (shortened to “activity, times better than that”) on IRAK4 is reported as “more than 25 times”. The IC50 on IRAK4 (IRAK4 kinase, 10 μM ATP) was found to be 4.1 nM. The “metabolic stability in liver microsomes of human (in words)” value in series [1] is recorded as “good metabolism”. Besides, the half-life in series [1] (NADPH, 37° C., read-out: Human microsome (t1/2)) is 1.95 h; in series [2] (SD rat liver microsomes, NADPH, 37° C., read-out: Rat microsome (t1/2)) it was 1.27 h; in series [3] (CD-1 mouse liver microsomes, NADPH, 37° C., read-out: Mouse microsome (t1/2)), 1.48 h; in series [4] (Beagle dog liver microsomes, NADPH, 37° C., read-out: Dog microsome (t1/2)), 1.13 h. Besides, the “metabolic stability in liver microsomes of rat (in words)” value in series [2] (rat liver microsomes) is recorded as “moderate metabolic stability”. The “metabolic stability in liver microsomes of mouse (in words)” value in series [3] (mouse liver microsomes) is given as “good metabolism”. The “metabolic stability in liver microsomes of dog (in words)” value in series [4] (dog liver microsomes) is “moderate metabolic stability”.
For the compound `CC1(C)Cc2cc(C(=O)Nc3cccn(C4CC4)c3=O)c(N3CCC(O)CC3)nc2O1` [Compound B10, N-(1-Cyclopropyl-2-oxo-1,2-dihydropyridin-3-yl)-6-(4-hydroxypiperidin-1-yl)-2,2-dimethyl-2,3-dihydrofuro[2,3-b]pyridine-5-carboxamide], at IRAK4, the concentration for half-maximal inhibition (IC50) is 479 nM.
With `COc1nc2c(cc1C(=O)Nc1cccc(-c3cnn(C)c3)n1)CC(C)(C)O2` [Compound B11, 6-Methoxy-2,2-dimethyl-N-(6-(1-methyl-1H-pyrazol-4-yl)pyridin-2-yl)-2,3-dihydrofuro[2,3-b]pyridine-5-carboxamide], the IC50 at IRAK4 (IRAK4 kinase, 10 μM ATP) was 50 nM.
The same measure, in the same setting: then `CCOc1nc2c(cc1C(=O)Nc1cccc(-c3cnn(C)c3)n1)CC(C)(C)O2` [Compound B12, 6-Ethoxy-2,2-dimethyl-N-(6-(1-methyl-1H-pyrazol-4-yl)pyridin-2-yl)-2,3-dihydrofuro[2,3-b]pyridine-5-carboxamide], with 9.2 nM; and `CC(C)Oc1nc2c(cc1C(=O)Nc1cccc(-c3cnn(C)c3)n1)CC(C)(C)O2` [Compound B13, 6-Isopropoxy-2,2-dimethyl-N-(6-(1-methyl-1H-pyrazol-4-yl)pyridin-2-yl)-2,3-dihydrofuro[2,3-b]pyridine-5-carboxamide], with 6.2 nM; and `Cn1cc(-c2cccc(NC(=O)c3cc4c(nc3OC3CCC3)OC(C)(C)C4)n2)cn1` [Compound B14, 6-Cyclobutoxy-2,2-dimethyl-N-(6-(1-methyl-1H-pyrazol-4-yl)pyridin-2-yl)-2,3-dihydrofuro[2,3-b]pyridine-5-carboxamide], with 6.1 nM.
As for `Cn1cc(-c2cccc(NC(=O)c3cc4c(nc3OC3CCCC3)OC(C)(C)C4)n2)cn1` [Compound B15, 6-(Cyclopentyloxy)-2,2-dimethyl-N-(6-(1-methyl-1H-pyrazol-4-yl)pyridin-2-yl)-2,3-dihydrofuro[2,3-b]pyridine-5-carboxamide], the IC50 on IRAK4 (IRAK4 kinase, 10 μM ATP) is 5.6 nM.
Consider `Cn1cc(-c2cccc(NC(=O)c3cc4c(nc3OC3COC3)OC(C)(C)C4)n2)cn1` [Compound B16, 2,2-Dimethyl-N-(6-(1-methyl-1H-pyrazol-4-yl)pyridin-2-yl)-6-(oxetan-3-yloxy)-2,3-dihydrofuro[2,3-b]pyridine-5-carboxamide], for which the IC50 on IRAK4 (IRAK4 kinase, 10 μM ATP) was found to be 11 nM.
On to `Cn1cc(-c2cccc(NC(=O)c3cc4c(nc3O[C@H]3CCOC3)OC(C)(C)C4)n2)cn1` [Compound B17, (S)-2,2-Dimethyl-N-(6-(1-methyl-1H-pyrazol-4-yl)pyridin-2-yl)-6-((tetrahydrofuran-3-yl)oxy)-2,3-dihydrofuro[2,3-b]pyridine-5-carboxamide], for which the IC50 on IRAK4 (IRAK4 kinase, 10 μM ATP) was found to be 6.5 nM.
Consider `Cn1cc(-c2cccc(NC(=O)c3cc4c(nc3OC(F)F)OC(C)(C)C4)n2)cn1` [Compound B20, 6-(Difluoromethoxy)-2,2-dimethyl-N-(6-(1-methyl-1H-pyrazol-4-yl)pyridin-2-yl)-2,3-dihydrofuro[2,3-b]pyridine-5-carboxamide], for which the IC50 at IRAK4 (IRAK4 kinase, 10 μM ATP) was determined as 27 nM.
Consider `CN1CCC(Oc2nc3c(cc2C(=O)Nc2cccc(-c4cnn(C)c4)n2)CC(C)(C)O3)C1` (stereo not shown) [Compound B21, 2,2-Dimethyl-N-(6-(1-methyl-1H-pyrazol-4-yl)pyridin-2-yl)-6-((1-methylpyrrolidin-3-yl)oxy)-2,3-dihydrofuro[2,3-b]pyridine-5-carboxamide], for which the half-inhibitory concentration (IC50) on IRAK4 (IRAK4 kinase, 10 μM ATP) was 75 nM.
In the case of `Cn1cc(-c2cccc(NC(=O)c3cc4c(nc3OC3CCNC3)OC(C)(C)C4)n2)cn1` (stereo not shown) [Compound B22, 2,2-Dimethyl-N-(6-(1-methyl-1H-pyrazol-4-yl)pyridin-2-yl)-6-(pyrrolidin-3-yloxy)-2,3-dihydrofuro[2,3-b]pyridine-5-carboxamide], the IC50 on IRAK4 (IRAK4 kinase, 10 μM ATP) is 354 nM.
Consider `Cn1cc(-c2cccc(NC(=O)c3cc4c(nc3OC3CCOCC3)OC(C)(C)C4)n2)cn1` [Compound B23, 2,2-Dimethyl-N-(6-(1-methyl-1H-pyrazol-4-yl)pyridin-2-yl)-6-((tetrahydro-2H-pyran-4-yl)oxy)-2,3-dihydrofuro[2,3-b]pyridine-5-carboxamide], for which the half-inhibitory concentration (IC50) at IRAK4 (IRAK4 kinase, 10 μM ATP) came to 11 nM.
For the compound `Cn1cc(-c2cccc(NC(=O)c3cc4c(nc3OCC3CC3)OC(C)(C)C4)n2)cn1` [Compound B24, 6-(Cyclopropylmethoxy)-2,2-dimethyl-N-(6-(1-methyl-1H-pyrazol-4-yl)pyridin-2-yl)-2,3-dihydrofuro[2,3-b]pyridine-5-carboxamide], the IC50 at IRAK4 (IRAK4 kinase, 10 μM ATP) came out at 11 nM.
Still for that read-out and setting: then `CC(Oc1nc2c(cc1C(=O)Nc1cccc(-c3cnn(C)c3)n1)CC(C)(C)O2)C1CC1` (stereo not shown) [Compound B26, 6-(1-Cyclopropylethoxy)-2,2-dimethyl-N-(6-(1-methyl-1H-pyrazol-4-yl)pyridin-2-yl)-2,3-dihydrofuro[2,3-b]pyridine-5-carboxamide], with 13 nM.
As to `Cn1cc(-c2cccc(NC(=O)c3cc4c(nc3OC3CNC(=O)OC3)OC(C)(C)C4)n2)cn1` (stereo not shown) [Compound B28, 2,2-Dimethyl-N-(6-(1-methyl-1H-pyrazol-4-yl)pyridin-2-yl)-6-((2-oxo-1,3-oxazinan-5-yl)oxy)-2,3-dihydrofuro[2,3-b]pyridine-5-carboxamide], the IC50 at IRAK4 (IRAK4 kinase, 10 μM ATP) was found to be 248 nM.
As for `Cn1cc(-c2cccc(NC(=O)c3cc4c(nc3OC3CC3)OC(C)(C)C4)n2)cn1` [Compound B29, 6-Cyclopropoxy-2,2-dimethyl-N-(6-(1-methyl-1H-pyrazol-4-yl)pyridin-2-yl)-2,3-dihydrofuro[2,3-b]pyridine-5-carboxamide], the “activity, times better than that” value at IRAK4 was “more than 10 times”. Besides, on IRAK4 (IRAK4 kinase, 10 μM ATP), the IC50 stood at 6.2 nM.
For the compound `Cn1cc(-c2cccc(NC(=O)c3cc4c(nc3OC3CNC3)OC(C)(C)C4)n2)cn1` [Compound B30, 6-(Azetidin-3-yloxy)-2,2-dimethyl-N-(6-(1-methyl-1H-pyrazol-4-yl)pyridin-2-yl)-2,3-dihydrofuro[2,3-b]pyridine-5-carboxamide], the IC50 on IRAK4 (IRAK4 kinase, 10 μM ATP) was determined as 170 nM.
Turning to `CN1CC(Oc2nc3c(cc2C(=O)Nc2cccc(-c4cnn(C)c4)n2)CC(C)(C)O3)C1` [Compound B31, 2,2-Dimethyl-N-(6-(1-methyl-1H-pyrazol-4-yl)pyridin-2-yl)-6-((1-methylazetidin-3-yl)oxy)-2,3-dihydrofuro[2,3-b]pyridine-5-carboxamide], on IRAK4 (IRAK4 kinase, 10 μM ATP), the IC50 is 176 nM.
Consider `Cn1cc(-c2cccc(NC(=O)c3cc4c(nc3O[C@@H]3CCOC3)OC(C)(C)C4)n2)cn1` [Compound B33, (R)-2,2-Dimethyl-N-(6-(1-methyl-1H-pyrazol-4-yl)pyridin-2-yl)-6-((tetrahydrofuran-3-yl)oxy)-2,3-dihydrofuro[2,3-b]pyridine-5-carboxamide], for which the “activity, times better than that” value at IRAK4 is on record as “more than 10 times”. Besides, the IC50 on IRAK4 (IRAK4 kinase, 10 μM ATP) is 8.9 nM.
For the compound `Cn1cc(-c2cccc(NC(=O)c3cc4c(nc3O)OC(C)(C)C4)n2)cn1` [Compound B34], the IC50 on IRAK4 (IRAK4 kinase, 10 μM ATP) amounted to 243 nM.
Regarding `Cn1cc(-c2cccc(NC(=O)c3cc4c(nc3OC3CC(C)(O)C3)OC(C)(C)C4)n2)cn1` (stereo not shown) [Compound B35, 6-(3-Hydroxy-3-methylcyclobutoxy)-2,2-dimethyl-N-(6-(1-methyl-1H-pyrazol-4-yl)pyridin-2-yl)-2,3-dihydrofuro[2,3-b]pyridine-5-carboxamide], on IRAK4, the “activity, times better than that” value is “more than 10 times”. Moreover, the IC50 on IRAK4 (IRAK4 kinase, 10 μM ATP) worked out at 6.8 nM.

The values above are taken from patent US20250074919A1, “Heteroaryl compounds as inhibitors of irak4, compositions and applications thereof” (Accro Bioscience (HK) Limited, priority 2021, published 2025).
